{
  "source": "patent US7262173B2",
  "about": "“Chemosensitizing with liposomes containing oligonucleotides” (Georgetown University, priority 1997, dated 2007)",
  "key": {"Raf-1": {"test_system": "Raf-1", "experiment": "Raf-1 expression in normal mouse tissues after i.v. ODN", "assay_type": "in vivo, Balb/c nu/nu mice", "settings": "i.v. 6 mg/kg daily for 5 days", "description": "FIG. 7: Effects of intravenous administration of LE-ATG-AS raf ODN (SEQ ID NO:1) our Raf-1 expression in normal and tumor tissues. Raf-1 expression was examined in liver, kidneys and SQ-20B tumor xenograft of Balb/c nu/nu mice after i.v. injections of 6 mg/kg daily dose of LE-ATG-AS raf ODN (SEQ ID NO:1) (AS) or LE-ATG-S raf ODN (SEQ ID NO:3) (S) for five consecutive days. Control mice (C) received normal saline. Representative data showing Raf-1 expression in lysates normalized for protein content by immunoprecipitation and immunoblotting (top). Quantification data are shown as mean±s.d. from three mice (bottom).\nLogarithmically growing SQ-20B cells were injected subcutaneously (2×10^6 cells) in the flank regions on both sides in male Balb/c nu/nu mice under mild anesthesia. Tumors were allowed to grow to a mean tumor volume of 115 mm^3 before initiation of ODN treatment. Two treatment routes were followed: intravenous and intratumoral. For intravenous delivery, mice were randomly divided into six groups. […]\nFor in vivo expression studies, tumor tissue and organs were homogenized in the cell lysis buffer using Polytron homogenizer (Westbury, N.Y., USA). Raf-1 expression was analyzed in tissue homogenates by immunoprecipitation and immunoblotting as described above."}, "[1]": {"experiment": "Plasma pharmacokinetics of raf ODN after i.v. injection", "assay_type": "in vivo, Balb/c nu/nu mice", "settings": "30 mg/kg i.v.", "description": "FIG. 3: The plasma concentration-time profile of LE-ATG-AS raf ODN (SEQ ID NO:1), 30 mg/kg LE-ATG-AS raf ODN (SEQ ID NO:1) (top panel) or TG-AS raf ODN (SEQ ID NO:1) (middle panel) was administered […]. in […] nu/nu mice. Blood samples were collected from retro-orbital sinus as indicated times after injection and the ODNs in plasma samples were extracted and analyzed by denaturing gel electrophoresis as explained in the experimental procedures. St standards prepared by spiking known amounts of ATG-AS raf ODN (SEQ ID NO:1) in blank plasma. Top panel: Samples were diluted before electrophoresis as follows: lane 1, 12×; lanes 2 and 3, 4×; lanes 4 and 5, 3.3×; lane 6, 2×; lane 7, 1.4×; lane 8, 1.3×; and lane 9, I×. […] Additional standards (1.4 to >2 log range) were used to determine ODN concentration over a 24 hour period (data not shown). Middle panel: Samples were diluted before loading as follows: lane 1, 4×, lanes 2 and 3, 2×, lanes 4, 5 and 6, I×; lane 7, 0.75×, lanes 8 and […], 0.6×. […]\nThe extracts were loaded on to 20% polyacrylamide/3 M urea gels and electrophoresed in TBE buffer. […] The autoradiographs were scanned using a computer program (ImageQuant software, Molecular Dynamics, Sunnyvale, Calif., and USA), and the amounts of ATG-AS raf ODN (SEQ ID NO:1) in various samples were calculated by comparison to standards."}},
  "data": [
    {"substance": "5′-GTG-CTCCATTGATGC-3′ (antisense GTGCTCCATTGATGC; DNA, linkages s1 o12 s1 (s phosphorothioate, o phosphodiester), methylation of C not given here) [ATG-AS raf ODN, antisense ODN to translation initiation site of human c-raf-1 cDNA; one terminal base linkage at each end phosphorothioate]", "values": [
      {"measurement": "inhibition of Raf-1 expression in normal tissues", "setting": "Raf-1", "result": "No inhibition"},
      {"measurement": "plasma concentration", "setting": "[1]; at 5 min", "result": 9.75, "unit": "µg/mL"},
      {"measurement": "only time at which intact ODN detectable in plasma", "setting": "[1]; free ODN", "result": 5, "unit": "min"}
    ]}
  ]
}
